Measured values as given in paper PMC9516332 (Frontiers in Oncology, 2022).
pIC50: −log10 of the molar value. Where two headings read alike, the source gives them in different places.

Test system: 134 cancer cell lines
Test: Cell viability assay (ATPlite, 72 hours), IC50 on cancer cell line panel

Cn1cnc2c(F)c(Nc3ccc(Br)cc3F)c(C(=O)NOCCO)cc21 [binimetinib]
pIC50 (Homo sapiens, MOLM-13, read-out: IC50 in cell proliferation assay, MOLM-13 cell line (FLT3 ITD)): 5.99
pIC50 (Homo sapiens, MOLT-4, read-out: IC50 in cell proliferation assay, MOLT-4 cell line): < 4.50
pIC50 (Homo sapiens, MV4-11, read-out: IC50 in cell proliferation assay, MV4-11 cell line (FLT3 ITD)): 6.29
pIC50 (Homo sapiens, MeWo, read-out: IC50 in cell proliferation assay, MeWo cell line): 6.93
pIC50 (Homo sapiens, NCCIT, read-out: IC50 in cell proliferation assay, NCC-IT cell line): 4.92
pIC50 (Homo sapiens, NCI-H82, read-out: IC50 in cell proliferation assay, cell line NCI-H82): < 4.50
pIC50 (Homo sapiens, NCI-H460, read-out: IC50 in cell proliferation assay, NCI-H460 cell line): 6.92
pIC50 (Homo sapiens, NCI-H661, read-out: IC50 in cell proliferation assay, NCI-H661 cell line): 5.48
pIC50 (Homo sapiens, NCI-H716, read-out: IC50 in cell proliferation assay, cell line NCI-H716 (FGFR2-COL14A1)): 7.57
pIC50 (Homo sapiens, NCI-H1650, read-out: IC50 in cell proliferation assay, NCI-H1650 cell line (EGFR exon19del)): 5.07
pIC50 (Homo sapiens, NCI-H1975, read-out: IC50 in cell proliferation assay, NCI-H1975 cell line (EGFR p.L858R + p.T790M)): 6.70
pIC50 (Homo sapiens, NCI-H2228, read-out: IC50 in cell proliferation assay, NCI-H2228 cell line (EML4-ALK)): 7.80
pIC50 (Homo sapiens, OVCAR-3, read-out: IC50 in cell proliferation assay, cell line OVCAR-3): < 4.50
pIC50 (Homo sapiens, PFSK-1, read-out: IC50 in cell proliferation assay, cell line PFSK-1): < 4.50
pIC50 (Homo sapiens, RL95-2, read-out: IC50 in cell proliferation assay, cell line RL95-2 (EGFR p.A289V)): 7.62
pIC50 (Homo sapiens, RPMI-7951, read-out: IC50 in cell proliferation assay, cell line RPMI-7951 (BRAF p.V600E)): 6.70
pIC50 (Homo sapiens, RS4-11, read-out: IC50 in cell proliferation assay, cell line RS4;11): < 4.50
pIC50 (Homo sapiens, Rec1, read-out: IC50 in cell proliferation assay, cell line REC-1): < 4.50
pIC50 (Homo sapiens, SHP77, read-out: IC50 in cell proliferation assay, cell line SHP-77): < 4.50
pIC50 (Homo sapiens, SK-BR-3, read-out: IC50 in cell proliferation assay, cell line SK-BR-3 (ERBB2 amplification)): < 4.50
pIC50 (Homo sapiens, SK-N-AS, read-out: IC50 in cell proliferation assay, cell line SK-N-AS): 7.85
pIC50 (Homo sapiens, SK-N-FI, read-out: IC50 in cell proliferation assay, cell line SK-N-FI): 6.10
pIC50 (Homo sapiens, SK-N-MC, read-out: IC50 in cell proliferation assay, cell line SK-N-MC): < 4.50
pIC50 (Homo sapiens, SK-N-SH, read-out: IC50 in cell proliferation assay, cell line SK-N-SH (ALK p.F1174L)): 7.23
pIC50 (Homo sapiens, SNU-5, read-out: IC50 in cell proliferation assay, cell line SNU-5 (MET amplification)): 5.83
pIC50 (Homo sapiens, SNU-16, read-out: IC50 in cell proliferation assay, cell line SNU-16 (FGFR2 amplification)): 5.01
pIC50 (Homo sapiens, SNU-C2B, read-out: IC50 in cell proliferation assay, cell line SNU-C2B (EGFR p.R165Q)): 6.75
pIC50 (Homo sapiens, SU-DHL-1, read-out: IC50 in cell proliferation assay, cell line SU-DHL-1 (NPM1-ALK)): 5.55
pIC50 (Homo sapiens, SU-DHL-6, read-out: IC50 in cell proliferation assay, cell line SU-DHL-6): 7.33
pIC50 (Homo sapiens, SUP-T1, read-out: IC50 in cell proliferation assay, cell line SUP-T1): < 4.50
pIC50 (Homo sapiens, SW48, read-out: IC50 in cell proliferation assay, cell line SW48 (EGFR p.G719S)): 7.85
pIC50 (Homo sapiens, SW480, read-out: IC50 in cell proliferation assay, cell line SW480): 6.13
pIC50 (Homo sapiens, SW626, read-out: IC50 in cell proliferation assay, cell line SW626): 7.49
pIC50 (Homo sapiens, SW780, read-out: IC50 in cell proliferation assay, cell line SW780 (FGFR3-BAIAP2L1)): 6.57
pIC50 (Homo sapiens, SW837, read-out: IC50 in cell proliferation assay, cell line SW837): 6.96
pIC50 (Homo sapiens, SW872, read-out: IC50 in cell proliferation assay, cell line SW872 (BRAF p.V600E)): 7.47
pIC50 (Homo sapiens, SW900, read-out: IC50 in cell proliferation assay, cell line SW900): 7.11
pIC50 (Homo sapiens, SW948, read-out: IC50 in cell proliferation assay, cell line SW948): 7.09
pIC50 (Homo sapiens, SW982, read-out: IC50 in cell proliferation assay, cell line SW982 (BRAF p.V600E)): 6.78
pIC50 (Homo sapiens, SW-620, read-out: IC50 in cell proliferation assay, cell line SW620): 7.74
pIC50 (Homo sapiens, T98G, read-out: IC50 in cell proliferation assay, cell line T98G): 4.92
pIC50 (Homo sapiens, TCC-SUP, read-out: IC50 in cell proliferation assay, cell line TCCSUP): 6.44
pIC50 (Homo sapiens, THP-1, read-out: IC50 in cell proliferation assay, cell line THP-1): 7.77
pIC50 (Homo sapiens, U2OS, read-out: IC50 in cell proliferation assay, cell line U2OS): 5.38
pIC50 (Homo sapiens, U-87 MG, read-out: IC50 in cell proliferation assay, cell line U-87MG ATCC): 5.07
pIC50 (Homo sapiens, U-118-MG, read-out: IC50 in cell proliferation assay, cell line U-118MG): < 4.50
pIC50 (Homo sapiens, UMUC3, read-out: IC50 in cell proliferation assay, cell line UM-UC-3): 6.91
pIC50 (Hs766T, read-out: IC50 in cell proliferation assay, Hs 766T cell line): 7.48
pIC50 (L-82, read-out: IC50 in cell proliferation assay, L-82 cell line (NPM1-ALK)): 5.72
pIC50 (Rh30, read-out: IC50 in cell proliferation assay, cell line Rh30): < 4.50
pIC50 (read-out: IC50 in cell proliferation assay, 11-18 cell line (EGFR p.L858R)): < 4.50
pIC50 (read-out: IC50 in cell proliferation assay, Hs 852.T cell line): 6.57
pIC50 (read-out: IC50 in cell proliferation assay, JAR cell line): < 4.50
pIC50 (read-out: IC50 in cell proliferation assay, cell line 5637): 6.86
pIC50 (read-out: IC50 in cell proliferation assay, cell line A-388): 6.16
pIC50 (read-out: IC50 in cell proliferation assay, cell line DB): < 4.50
pIC50 (read-out: IC50 in cell proliferation assay, cell line DEL (NPM1-ALK)): < 4.50
pIC50 (read-out: IC50 in cell proliferation assay, cell line ES-2 (BRAF p.V600E)): 6.73
pIC50 (read-out: IC50 in cell proliferation assay, cell line PA-1): 5.87
pIC50 (read-out: IC50 in cell proliferation assay, cell line PC-3): < 4.50
pIC50 (read-out: IC50 in cell proliferation assay, cell line RD): 7.40
pIC50 (read-out: IC50 in cell proliferation assay, cell line RKO (BRAF p.V600E)): 7.54
pIC50 (read-out: IC50 in cell proliferation assay, cell line RL): < 4.50
pIC50 (read-out: IC50 in cell proliferation assay, cell line RT-4 (FGFR3-TACC3)): 4.72
pIC50 (read-out: IC50 in cell proliferation assay, cell line SR (NPM1-ALK)): 5.40
pIC50 (read-out: IC50 in cell proliferation assay, cell line T24): 7.22
pIC50 (read-out: IC50 in cell proliferation assay, cell line TT (RET p.C634W)): 5.76
pIC50 (read-out: IC50 in cell proliferation assay, cell line VA-ES-BJ): 5.08
